# Laboratory results as given in ChEMBL document CHEMBL4507283, “Data for DCP probe BI-1935” (2021).
# Activity calls are given as the source filed them. No cut-off for these calls is given here.
# Key:
# [1] = target: Sigma non-opioid intracellular receptor 1 (Homo sapiens, UniProt Q99720); experiment: GPCRScan assay: inhibition of Sigma 1; design: radioligand conc. used [nm] 4.0 – 5.0, parental cells HEKT
# [2] = target: T1, Bifunctional epoxide hydrolase 2 (Homo sapiens, UniProt P34913); experiment: Cellular assay
# T1 sequence (P34913 whole entry): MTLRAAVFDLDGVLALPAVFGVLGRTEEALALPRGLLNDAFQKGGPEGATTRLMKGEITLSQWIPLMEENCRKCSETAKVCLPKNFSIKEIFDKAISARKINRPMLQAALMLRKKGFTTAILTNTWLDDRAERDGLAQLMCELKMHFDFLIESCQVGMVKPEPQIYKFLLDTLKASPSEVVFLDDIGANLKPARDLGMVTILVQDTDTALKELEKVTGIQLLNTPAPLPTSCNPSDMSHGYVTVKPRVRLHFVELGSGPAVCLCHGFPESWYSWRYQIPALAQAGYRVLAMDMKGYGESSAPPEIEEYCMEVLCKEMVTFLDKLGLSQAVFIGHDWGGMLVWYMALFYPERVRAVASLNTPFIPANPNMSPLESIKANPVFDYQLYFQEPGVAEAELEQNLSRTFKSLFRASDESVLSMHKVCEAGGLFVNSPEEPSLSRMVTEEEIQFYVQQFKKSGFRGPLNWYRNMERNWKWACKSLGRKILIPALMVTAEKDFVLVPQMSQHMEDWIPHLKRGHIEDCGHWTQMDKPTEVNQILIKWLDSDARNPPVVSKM
# [3] = target: Polyunsaturated fatty acid lipoxygenase ALOX15 (Oryctolagus cuniculus) (UniProt P12530); experiment: 15LO Eurofins-Panlabs selectivity data (BI); settings: Compound concentration 10.0 uM
# [4] = target: T2, Polyunsaturated fatty acid 5-lipoxygenase (Homo sapiens) (UniProt P09917); experiment: 5LO Eurofins-Panlabs selectivity data (BI)
# T2 sequence (whole entry): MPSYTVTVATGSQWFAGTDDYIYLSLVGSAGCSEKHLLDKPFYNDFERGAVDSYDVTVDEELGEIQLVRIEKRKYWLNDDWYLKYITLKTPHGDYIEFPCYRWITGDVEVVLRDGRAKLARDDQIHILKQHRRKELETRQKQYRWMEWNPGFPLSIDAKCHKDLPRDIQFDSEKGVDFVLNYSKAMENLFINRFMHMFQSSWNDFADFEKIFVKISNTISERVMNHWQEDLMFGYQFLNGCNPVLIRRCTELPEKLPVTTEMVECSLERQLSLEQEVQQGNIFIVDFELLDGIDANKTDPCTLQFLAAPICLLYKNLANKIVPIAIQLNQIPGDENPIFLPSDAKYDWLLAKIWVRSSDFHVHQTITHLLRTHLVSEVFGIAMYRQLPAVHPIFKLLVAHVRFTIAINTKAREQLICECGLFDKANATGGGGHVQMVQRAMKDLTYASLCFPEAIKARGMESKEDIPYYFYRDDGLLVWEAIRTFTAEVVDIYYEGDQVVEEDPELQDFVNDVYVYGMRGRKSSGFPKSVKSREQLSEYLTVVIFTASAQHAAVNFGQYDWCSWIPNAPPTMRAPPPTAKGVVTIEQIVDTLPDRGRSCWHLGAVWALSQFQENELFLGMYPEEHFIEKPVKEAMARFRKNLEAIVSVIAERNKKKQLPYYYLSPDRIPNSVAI
# [5] = target: Angiotensin-converting enzyme (Oryctolagus cuniculus) (UniProt P12822); experiment: ANGIOCONVENZ Eurofins-Panlabs selectivity data (BI); settings: Compound concentration 10.0 uM
# [6] = target: Voltage-dependent L-type calcium channel subunit alpha-1C (Rattus norvegicus, UniProt P22002); experiment: CA+/TLATATG Eurofins-Panlabs selectivity data (BI); design: species or system Cavia porcellus; mode of action antagonist; settings: guinea pig, atrial tissue, read-out: % Ctrl
# [7] = system: Tyrosine-protein kinase ABL1 (Homo sapiens), P00519 [F317L]; settings: Compound concentration 1000.0 nM
# [8] = system: ALK tyrosine kinase receptor (Homo sapiens), Q9UM73 [L1196M]; settings: Compound concentration 1000.0 nM
# [9] = target: Tyrosine-protein kinase CSK (Homo sapiens) (UniProt P41240); settings: Compound concentration 1000.0 nM
# [10] = target: Casein kinase I isoform delta (Homo sapiens) (UniProt P48730); settings: Compound concentration 1000.0 nM
# [11] = system: Epidermal growth factor receptor (Homo sapiens), P00533 [UNDEFINED MUTATION]; settings: Compound concentration 1000.0 nM
# [12] = system: eIF-2-alpha kinase GCN2 (Homo sapiens), Q9P2K8 [S808G]; settings: Compound concentration 1000.0 nM
# [13] = target: Glycogen synthase kinase-3 beta (Homo sapiens) (UniProt P49841); settings: Compound concentration 1000.0 nM
# [14] = target: Serine/threonine-protein kinase LATS2 (Homo sapiens) (UniProt Q9NRM7); settings: Compound concentration 1000.0 nM
# [15] = target: Serine/threonine-protein kinase 4 (Homo sapiens) (UniProt Q13043); settings: Compound concentration 1000.0 nM
# [16] = target: Mitogen-activated protein kinase kinase kinase 14 (Homo sapiens) (UniProt Q99558); settings: Compound concentration 1000.0 nM
# [17] = system: Phosphatidylinositol 4,5-bisphosphate 3-kinase catalytic subunit alpha isoform (Homo sapiens), P42336 [E545K]; settings: Compound concentration 1000.0 nM
# [18] = target: Phosphatidylinositol 4-phosphate 5-kinase type-1 gamma (Homo sapiens) (UniProt O60331); settings: Compound concentration 1000.0 nM
# [19] = target: Phosphatidylinositol 5-phosphate 4-kinase type-2 gamma (Homo sapiens) (UniProt Q8TBX8); settings: Compound concentration 1000.0 nM
# [20] = target: Serine/threonine-protein kinase SBK1 (Homo sapiens) (UniProt Q52WX2); settings: Compound concentration 1000.0 nM
# [21] = target: Serine/threonine-protein kinase Sgk3 (Homo sapiens) (UniProt Q96BR1); settings: Compound concentration 1000.0 nM
# [22] = target: 5-hydroxytryptamine receptor 2A (Homo sapiens) (UniProt P28223); settings: Compound concentration 10.0 uM
# [23] = target: 5-hydroxytryptamine receptor 6 (Homo sapiens) (UniProt P50406); settings: Compound concentration 10.0 uM
# [24] = target: Sodium-dependent dopamine transporter (Homo sapiens, UniProt Q01959); settings: Compound concentration 10.0 uM
# [25] = target: Alpha-2A adrenergic receptor (Homo sapiens) (UniProt P08913); settings: Compound concentration 10.0 uM
# [26] = system: GABA-B receptor (GABBR1, rat); experiment: GABAB/RA Eurofins-Panlabs selectivity data (BI); settings: Compound concentration 10.0 uM
# Sequence of Voltage-dependent L-type calcium channel subunit alpha-1C (P22002 whole entry): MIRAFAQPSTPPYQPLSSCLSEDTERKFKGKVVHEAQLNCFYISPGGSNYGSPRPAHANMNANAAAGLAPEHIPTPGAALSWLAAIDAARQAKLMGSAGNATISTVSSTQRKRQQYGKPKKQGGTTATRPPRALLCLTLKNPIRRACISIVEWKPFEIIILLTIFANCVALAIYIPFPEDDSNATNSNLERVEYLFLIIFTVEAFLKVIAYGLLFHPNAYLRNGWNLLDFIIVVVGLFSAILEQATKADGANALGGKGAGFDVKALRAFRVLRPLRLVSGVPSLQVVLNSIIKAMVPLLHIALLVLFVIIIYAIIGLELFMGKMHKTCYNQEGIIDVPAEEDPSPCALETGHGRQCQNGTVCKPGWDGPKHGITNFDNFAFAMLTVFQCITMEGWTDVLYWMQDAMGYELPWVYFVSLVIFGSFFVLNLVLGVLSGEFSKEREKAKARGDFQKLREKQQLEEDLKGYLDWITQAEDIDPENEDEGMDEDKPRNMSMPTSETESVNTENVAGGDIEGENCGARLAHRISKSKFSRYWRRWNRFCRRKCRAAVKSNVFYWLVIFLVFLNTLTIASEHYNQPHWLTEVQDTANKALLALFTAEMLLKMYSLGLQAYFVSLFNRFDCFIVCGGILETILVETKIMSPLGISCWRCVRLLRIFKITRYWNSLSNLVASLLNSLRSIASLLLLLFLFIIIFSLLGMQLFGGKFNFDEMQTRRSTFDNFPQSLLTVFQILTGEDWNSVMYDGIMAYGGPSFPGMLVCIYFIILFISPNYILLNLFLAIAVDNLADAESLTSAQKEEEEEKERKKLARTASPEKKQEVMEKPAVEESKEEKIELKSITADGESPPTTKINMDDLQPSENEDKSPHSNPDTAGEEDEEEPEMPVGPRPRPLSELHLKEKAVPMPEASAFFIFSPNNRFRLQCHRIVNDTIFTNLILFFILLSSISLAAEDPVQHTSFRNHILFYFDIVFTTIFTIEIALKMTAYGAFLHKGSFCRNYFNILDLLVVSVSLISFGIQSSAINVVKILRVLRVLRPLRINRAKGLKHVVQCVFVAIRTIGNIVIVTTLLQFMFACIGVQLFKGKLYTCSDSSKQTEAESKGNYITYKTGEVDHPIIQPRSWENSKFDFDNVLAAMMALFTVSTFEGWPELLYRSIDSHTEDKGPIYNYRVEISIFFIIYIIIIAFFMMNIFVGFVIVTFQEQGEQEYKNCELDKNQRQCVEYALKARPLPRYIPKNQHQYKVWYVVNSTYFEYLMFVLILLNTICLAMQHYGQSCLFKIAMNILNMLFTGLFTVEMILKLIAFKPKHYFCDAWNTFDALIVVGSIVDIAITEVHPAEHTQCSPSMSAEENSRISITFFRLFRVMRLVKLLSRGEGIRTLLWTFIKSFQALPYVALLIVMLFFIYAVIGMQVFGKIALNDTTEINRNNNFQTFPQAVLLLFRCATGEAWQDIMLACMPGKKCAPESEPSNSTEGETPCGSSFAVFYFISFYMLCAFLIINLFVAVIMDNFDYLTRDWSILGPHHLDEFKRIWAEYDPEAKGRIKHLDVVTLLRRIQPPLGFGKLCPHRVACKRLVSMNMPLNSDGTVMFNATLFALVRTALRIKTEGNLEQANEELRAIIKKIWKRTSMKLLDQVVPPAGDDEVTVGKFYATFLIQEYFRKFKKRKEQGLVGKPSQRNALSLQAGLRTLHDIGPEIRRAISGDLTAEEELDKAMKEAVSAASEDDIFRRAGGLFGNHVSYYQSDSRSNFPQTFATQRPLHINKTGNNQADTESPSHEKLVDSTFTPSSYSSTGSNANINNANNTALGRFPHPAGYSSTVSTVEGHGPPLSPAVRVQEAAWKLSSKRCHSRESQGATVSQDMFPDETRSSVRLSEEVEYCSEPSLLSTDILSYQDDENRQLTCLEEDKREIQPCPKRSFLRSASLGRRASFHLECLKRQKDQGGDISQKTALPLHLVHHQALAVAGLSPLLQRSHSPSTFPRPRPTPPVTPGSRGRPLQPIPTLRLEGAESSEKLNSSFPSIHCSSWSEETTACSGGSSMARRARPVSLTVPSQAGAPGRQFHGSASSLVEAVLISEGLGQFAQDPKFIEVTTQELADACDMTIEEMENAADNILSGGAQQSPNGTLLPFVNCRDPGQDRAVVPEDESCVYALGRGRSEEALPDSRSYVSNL
# Sequence of Alpha-2A adrenergic receptor (Homo sapiens) (P08913 whole entry): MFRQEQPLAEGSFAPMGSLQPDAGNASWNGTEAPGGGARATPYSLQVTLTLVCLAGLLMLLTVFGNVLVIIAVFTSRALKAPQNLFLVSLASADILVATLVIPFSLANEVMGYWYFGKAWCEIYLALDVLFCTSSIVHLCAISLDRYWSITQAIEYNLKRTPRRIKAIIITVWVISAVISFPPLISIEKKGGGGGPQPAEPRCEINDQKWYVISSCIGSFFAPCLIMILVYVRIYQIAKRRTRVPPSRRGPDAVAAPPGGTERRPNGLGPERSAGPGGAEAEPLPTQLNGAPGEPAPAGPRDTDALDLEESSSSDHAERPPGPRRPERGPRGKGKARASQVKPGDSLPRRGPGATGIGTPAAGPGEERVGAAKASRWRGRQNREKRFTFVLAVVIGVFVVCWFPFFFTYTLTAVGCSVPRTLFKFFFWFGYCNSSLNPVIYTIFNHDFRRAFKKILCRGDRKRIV
# Sequence of Mitogen-activated protein kinase kinase kinase 14 (Homo sapiens) (Q99558 whole entry, looked up, canonical isoform): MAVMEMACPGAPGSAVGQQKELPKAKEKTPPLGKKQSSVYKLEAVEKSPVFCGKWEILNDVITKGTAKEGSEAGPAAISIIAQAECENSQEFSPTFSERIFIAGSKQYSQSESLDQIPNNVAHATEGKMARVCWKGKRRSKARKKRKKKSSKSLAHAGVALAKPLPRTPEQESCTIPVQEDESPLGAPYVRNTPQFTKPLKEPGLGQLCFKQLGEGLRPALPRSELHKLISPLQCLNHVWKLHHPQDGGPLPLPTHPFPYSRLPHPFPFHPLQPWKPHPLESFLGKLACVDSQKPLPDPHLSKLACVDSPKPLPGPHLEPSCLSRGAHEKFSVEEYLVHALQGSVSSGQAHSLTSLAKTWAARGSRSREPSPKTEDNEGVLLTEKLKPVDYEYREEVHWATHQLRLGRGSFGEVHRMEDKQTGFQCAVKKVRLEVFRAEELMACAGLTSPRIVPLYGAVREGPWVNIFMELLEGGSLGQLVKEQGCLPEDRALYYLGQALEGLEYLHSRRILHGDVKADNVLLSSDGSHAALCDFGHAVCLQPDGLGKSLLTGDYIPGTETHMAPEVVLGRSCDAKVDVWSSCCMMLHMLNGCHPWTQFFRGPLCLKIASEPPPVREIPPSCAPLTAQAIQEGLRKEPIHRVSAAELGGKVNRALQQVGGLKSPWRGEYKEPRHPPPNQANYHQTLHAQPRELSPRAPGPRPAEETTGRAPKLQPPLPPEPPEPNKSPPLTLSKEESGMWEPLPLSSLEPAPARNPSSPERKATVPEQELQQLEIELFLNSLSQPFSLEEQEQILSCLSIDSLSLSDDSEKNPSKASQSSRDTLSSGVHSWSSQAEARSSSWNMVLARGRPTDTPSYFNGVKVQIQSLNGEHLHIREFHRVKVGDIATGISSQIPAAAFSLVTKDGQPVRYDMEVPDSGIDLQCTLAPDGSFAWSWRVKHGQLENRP
# Sequence of Sodium-dependent dopamine transporter (Q01959 whole entry): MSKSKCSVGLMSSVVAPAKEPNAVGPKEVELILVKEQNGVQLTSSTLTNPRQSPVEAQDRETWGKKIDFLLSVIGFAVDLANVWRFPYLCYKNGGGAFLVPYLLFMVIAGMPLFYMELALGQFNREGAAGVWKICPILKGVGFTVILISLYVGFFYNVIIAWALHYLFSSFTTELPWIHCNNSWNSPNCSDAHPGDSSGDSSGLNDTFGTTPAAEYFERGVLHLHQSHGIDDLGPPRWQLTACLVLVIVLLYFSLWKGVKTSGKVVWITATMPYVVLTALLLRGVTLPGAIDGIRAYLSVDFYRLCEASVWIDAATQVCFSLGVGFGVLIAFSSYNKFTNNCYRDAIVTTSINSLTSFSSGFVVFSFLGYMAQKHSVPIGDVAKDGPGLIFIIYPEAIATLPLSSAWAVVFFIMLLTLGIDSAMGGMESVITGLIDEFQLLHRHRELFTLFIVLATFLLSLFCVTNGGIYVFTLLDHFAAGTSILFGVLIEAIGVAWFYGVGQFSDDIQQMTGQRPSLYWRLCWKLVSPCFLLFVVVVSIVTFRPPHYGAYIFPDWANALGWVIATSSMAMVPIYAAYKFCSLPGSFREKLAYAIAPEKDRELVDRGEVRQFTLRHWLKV
# Sequence of Serine/threonine-protein kinase 4 (Homo sapiens) (Q13043 whole entry): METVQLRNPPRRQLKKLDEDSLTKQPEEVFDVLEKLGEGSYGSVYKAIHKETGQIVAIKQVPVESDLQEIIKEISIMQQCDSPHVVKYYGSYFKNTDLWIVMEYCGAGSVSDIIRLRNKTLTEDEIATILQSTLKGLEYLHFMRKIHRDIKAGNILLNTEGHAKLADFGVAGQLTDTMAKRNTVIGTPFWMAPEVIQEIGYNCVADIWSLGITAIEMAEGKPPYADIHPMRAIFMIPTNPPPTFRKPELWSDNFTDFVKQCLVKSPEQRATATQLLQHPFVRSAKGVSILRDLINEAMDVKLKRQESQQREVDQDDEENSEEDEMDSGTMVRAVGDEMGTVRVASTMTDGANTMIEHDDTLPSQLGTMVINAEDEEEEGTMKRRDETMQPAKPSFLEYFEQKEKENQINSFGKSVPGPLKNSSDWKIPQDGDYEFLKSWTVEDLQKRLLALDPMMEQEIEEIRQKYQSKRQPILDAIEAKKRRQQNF
# Sequence of Sigma non-opioid intracellular receptor 1 (Q99720 whole entry): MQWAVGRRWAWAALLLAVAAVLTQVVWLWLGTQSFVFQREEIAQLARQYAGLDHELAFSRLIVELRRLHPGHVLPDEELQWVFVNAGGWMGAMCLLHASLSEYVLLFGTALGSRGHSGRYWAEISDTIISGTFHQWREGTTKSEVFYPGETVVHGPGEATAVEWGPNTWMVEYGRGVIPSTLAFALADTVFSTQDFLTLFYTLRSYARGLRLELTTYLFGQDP
smiles,measurement,setting,value
CCOCCn1cc(C(=O)Nc2ccc(-n3nc(-c4cccnc4)cc3C(F)(F)F)cn2)ccc1=O [BI 1935],Ki,[1],6.28 µM
same,IC50,[2],< 0.001 µM (active)
same,residual activity,[3],92%
same,residual activity,[4]; Compound concentration 0.3 uM,99%
same,residual activity,[4]; Compound concentration 1.0 uM,88%
same,residual activity,[4]; Compound concentration 3.0 uM,74%
same,residual activity,[4]; Compound concentration 10.0 uM,27.5%
same,residual activity,[4]; Compound concentration 30.0 uM,2%
same,residual activity,[5],101%
same,activity at 1 µM,[6]; compound concentration 1 uM,86% (not active)
same,activity at 3 µM,[6]; compound concentration 3 uM,68% (not active)
same,activity at 10 µM,[6]; compound concentration 10 uM,25%
same,residual activity,[7],100%
same,residual activity,[8],73%
same,residual activity,[9],100%
same,residual activity,[10],100%
same,residual activity,[11],100%
same,residual activity,[12],72%
same,residual activity,[13],86%
same,residual activity,[14],65%
same,residual activity,[15],100%
same,residual activity,[16],69%
same,residual activity,[17],96%
same,residual activity,[18],100%
same,residual activity,[19],100%
same,residual activity,[20],91%
same,residual activity,[21],65%
same,inhibition,[22],-4.26%
same,inhibition,[23],0.656%
same,inhibition,[24],82.1%
same,inhibition,[25],-1.74%
same,residual activity,[26],94%
